Laboratory results from patent US20260166039A1 (SCHRÖDINGER, INC., priority 2022, published 2026).
Read-outs that look alike come from different tables or passages of the source.

Assays:
[1] = test system: phosphorylation of Cdc2 Y15 (Wee1 substrate) in A427 cells; experiment: Phosphorylated Cdc2 MSD Electrochemiluminescence Assay; assay type: cell-based; settings: Homo sapiens
Procedure, shortened: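 Read-out: percent residual phospho-Cdc2 Y15 relative to DMSO and positive-control Wee1 inhibitor, measured by MSD electrochemiluminescence capture/detection antibody assay in cell lysates. A427 cells received duplicate 3-fold compound dilution series 20 h post-seeding, with 6 h total incubation at 37 °C.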

[2] = target: T1, Wee1 kinase domain (Homo sapiens, UniProt P30291); experiment: Wee1 Kinase Biochemical Assay (ADP-Glo); settings: 15 uM ATP
T1 construct: Wee1 kinase domain was purchased from Carna (catalog #05-177); purchased Carna 05-177
T1 sequence (P30291 299-569 limits assumed): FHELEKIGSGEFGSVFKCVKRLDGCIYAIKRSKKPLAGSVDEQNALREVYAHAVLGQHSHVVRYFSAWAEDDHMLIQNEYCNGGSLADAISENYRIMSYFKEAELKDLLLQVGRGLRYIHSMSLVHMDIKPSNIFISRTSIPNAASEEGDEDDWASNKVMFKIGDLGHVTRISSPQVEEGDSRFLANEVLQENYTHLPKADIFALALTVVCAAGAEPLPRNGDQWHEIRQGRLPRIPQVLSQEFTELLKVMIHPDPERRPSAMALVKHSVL
Procedure, shortened: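 ADP-Glo luminescence readout of ADP produced by 1 nM kinase domain phosphorylating Poly(Lys,Tyr 4:1) (2 ng/mL) at 15 uM ATP. Reaction ran 4 h, 25 °C, in Tris/MgCl2 buffer with BSA and DTT. Inhibition scaled between DMSO (high) and saturating control inhibitor (low).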

[3] = A-427, class symbols, read-out: A427 pCDC2 MSD IC50
[4] = class symbols, 1 nM Wee1 enzyme, 4 hours at 25° C.

| SMILES | IC50 [1, 3] [nM] | IC50 [2, 4] [nM] | IC50 ([1]; A-427, pCDC2 MSD) [nM] | IC50 ([2]; Wee1 kinase domain, ADP-Glo) [nM] |
| --- | --- | --- | --- | --- |
| C[C@H]1CCC(=O)N1c1cccc(N2c3nc(Nc4ccc(N5CCN(C)CC5)cc4)ncc3[C@@]3(C)COC(C)(C)C[C@@H]23)n1 (single isomer, unassigned) [Example 583] | 100 to 1000 | < 10 | – | – |
| CNCc1cccc(N2c3nc(Nc4ccc(N5CCCCC5)cc4)ncc3[C@@]3(C)COC(C)(C)C[C@@H]23)n1 (single isomer, unassigned) [Example 2] | – | – | 100 to 1000 | < 10 |
| CN1CC[C@@H](Oc2ccc(Nc3ncc4c(n3)N(c3cccc(C(C)(C)O)n3)C3CC(C)(C)OCC43C)cc2)C1 (stereo in doubt) [Example 423, 2-(6-((4bR,8aR)-4b,7,7-trimethyl-2-((4-(((R)-1-methylpyrrolidin-3-yl)oxy)phenyl)amino)-4b,7,8,8a-tetrahydropyrano[3′,4′:4,5]pyrrolo[2,3-d]pyrimidin-9(5H)-yl)pyridin-2-yl)propan-2-ol] | 100 to 1000 | < 10 | – | – |
| CN1[C@@H]2C[C@H]1CN(c1ccc(Nc3ncc4c(n3)N(c3cccc(C(C)(C)O)n3)[C@@H]3CC(C)(C)OC[C@]43C)cc1)C2 (single isomer, unassigned) [Example 441] | 100 to 1000 | < 10 | – | – |
| C[C@H]1COC(=O)N1c1cccc(N2c3nc(Nc4ccc(O[C@@H]5CCN(C)C5)cc4)ncc3[C@@]3(C)COC(C)(C)C[C@@H]23)n1 (single isomer, unassigned) [Example 331] | – | – | 100 to 1000 | < 10 |
| CN1CCN(c2cccc(Nc3ncc4c(n3)N(c3cccc(N=S(C)(C)=O)n3)[C@@H]3CC(C)(C)OC[C@]43C)c2)CC1 (single isomer, unassigned) [Example 486] | < 100 | < 10 | – | – |
| CN1C[C@@H]2C[C@H]1CN2c1ccc(Nc2ncc3c(n2)N(c2cccc(N=S(C)(C)=O)n2)[C@@H]2CC(C)(C)OC[C@]32C)cc1 (single isomer, unassigned) [Example 124] | – | – | < 100 | < 10 |
| CC1(C)C[C@H]2N(c3cccc(N4CCOC4=O)n3)c3nc(Nc4ccc([C@@H]5CNC[C@@H]5F)cc4)ncc3[C@@]2(C)CO1 [Example 675, 3-(6-((4bR,8aR)-2-((4-((3R,4R)-4-fluoropyrrolidin-3-yl)phenyl)amino)-4b,7,7-trimethyl-4b,7,8,8a-tetrahydropyrano[3′,4′:4,5]pyrrolo[2,3-d]pyrimidin-9(5H)-yl)pyridin-2-yl)oxazolidin-2-one] | 100 to 1000 | < 10 | – | – |
| CC1(C)C[C@H]2N(c3cccc(N=S(C)(C)=O)n3)c3nc(Nc4ccc([C@@H]5CCCN5)nc4)ncc3[C@@]2(C)CO1 (single isomer, unassigned) [Example 214] | – | – | 100 to 1000 | < 10 |
| Cn1cc([C@H]2C[C@@H]2C(=O)Nc2ncc3c(n2)N(c2cccc(N=S(C)(C)=O)n2)[C@@H]2CC(C)(C)OC[C@]32C)cn1 (single isomer, unassigned) [Example 406] | 100 to 1000 | < 10 | – | – |
| CN1C[C@H]2C[C@@H]1CN2c1ccc(Nc2ncc3c(n2)N(c2cccc(C4(O)COC4)n2)[C@@H]2CC(C)(C)OC[C@]32C)cc1 (single isomer, unassigned) [Example 517] | 100 to 1000 | < 10 | – | – |
| CN(C)Cc1cccc(N2c3nc(Nc4ccc(C(C)(C)C(=O)O)cc4)ncc3[C@@]3(C)COC(C)(C)C[C@@H]23)n1 [Example 611] | 1000 to 10000 | < 10 | – | – |
| Cn1cc([C@@H]2C[C@H]2C(=O)Nc2ncc3c(n2)N(c2cccc(N=S(C)(C)=O)n2)[C@@H]2CC(C)(C)OC[C@]32C)cn1 (single isomer, unassigned) [Example 403] | 100 to 1000 | < 10 | – | – |
| CN1C[C@@H]2C[C@H]1CN2c1ccc(Nc2ncc3c(n2)N(c2cccc(N=S(C)(C)=O)n2)[C@@H]2CC(C)(C)OC[C@]32C)cc1F (single isomer, unassigned) [Example 180] | – | – | 100 to 1000 | < 10 |
| Cc1cc(Nc2ncc3c(n2)N(c2cccc(N4C(=O)OC[C@@H]4C)n2)[C@@H]2CC(C)(C)OC[C@]32C)ccc1N1C[C@@H]2C[C@H]1CN2C (single isomer, unassigned) [Example 295] | – | – | 100 to 1000 | < 10 |
| C[C@H]1COC(=O)N1c1cccc(N2c3nc(Nc4ccc(N5CCNCC5)cc4)ncc3[C@@]3(C)COC(C)(C)C[C@@H]23)n1 (single isomer, unassigned) [Example 260] | – | – | 100 to 1000 | < 10 |
| CN[C@@H]1CCc2ccc(N3c4nc(Nc5ccc(N6CCOCC6)cc5)ncc4[C@@]4(C)COC(C)(C)C[C@@H]34)nc21 (single isomer, unassigned) [Example 553] | 100 to 1000 | < 10 | – | – |
| CC1(C)C[C@H]2N(c3cccc(N=S(C)(C)=O)n3)c3nc(Nc4ccnnc4)ncc3[C@@]2(C)CO1 (single isomer, unassigned) [Example 799] | 1000 to 10000 | < 10 | – | – |

| SMILES | IC50 [1, 3] [nM] | IC50 [2, 4] [nM] | IC50 ([1]; A-427, pCDC2 MSD) [nM] | IC50 ([2]; Wee1 kinase domain, ADP-Glo) [nM] |
| --- | --- | --- | --- | --- |
| CN1CC[C@](C)(c2ccc(Nc3ncc4c(n3)N(c3cccc(N=S(C)(C)=O)n3)[C@@H]3CC(C)(C)OC[C@]43C)cc2)C1 (single isomer, unassigned) [Example 168] | – | – | < 100 | < 10 |
| [2H]C([2H])([2H])n1ccc(Nc2ncc3c(n2)N(c2cccc(N=S(C)(C)=O)n2)[C@@H]2CC(C)(C)OC[C@]32C)cc1=O (single isomer, unassigned) [Example 378] | – | – | 100 to 1000 | < 10 |
| CC1(C)C[C@H]2N(c3cccc(N=S(C)(C)=O)n3)c3nc(Nc4cnn(C5COC5)c4)ncc3[C@@]2(C)CO1 (single isomer, unassigned) [Example 223] | – | – | 100 to 1000 | < 10 |
| CN1CCCN(c2ccc(Nc3ncc4c(n3)N(c3cccc(N=S(C)(C)=O)n3)[C@@H]3CC(C)(C)OC[C@]43C)cc2)CC1 (single isomer, unassigned) [Example 501] | < 100 | < 10 | – | – |
| CNCc1cccc(N2c3nc(Nc4ccc(N5CCN(C)C(=O)C5)cc4)ncc3[C@@]3(C)COC(C)(C)C[C@@H]23)n1 (single isomer, unassigned) [Example 450] | 100 to 1000 | < 10 | – | – |
| CN1CCC(c2ccc(Nc3ncc4c(n3)N(c3cccc(N5CCOC5=O)n3)[C@@H]3CC(C)(C)OC[C@]43C)cc2)CC1 (single isomer, unassigned) [Example 591] | 100 to 1000 | < 10 | – | – |
| CC1(C)C[C@H]2N(c3cccc(N4CCOC4=O)n3)c3nc(Nc4ccc([C@H]5CNC[C@H]5F)cc4)ncc3[C@@]2(C)CO1 [Example 672, 3-(6-((4bR,8aR)-2-((4-((3S,4S)-4-fluoropyrrolidin-3-yl)phenyl)amino)-4b,7,7-trimethyl-4b,7,8,8a-tetrahydropyrano[3′,4′:4,5]pyrrolo[2,3-d]pyrimidin-9(5H)-yl)pyridin-2-yl)oxazolidin-2-one] | 100 to 1000 | < 10 | – | – |
| C[C@@H]1COC(=O)N1c1cccc(N2c3nc(Nc4ccc(N5CCN(C)CC5)cc4)ncc3[C@@]3(C)COC(C)(C)C[C@@H]23)n1 (single isomer, unassigned) [Example 589] | 100 to 1000 | < 10 | – | – |
| Cc1cc(Nc2ncc3c(n2)N(c2cccc(N=S(C)(C)=O)n2)[C@@H]2CC(C)(C)OC[C@]32C)ccc1[C@@H]1CCNC1 (single isomer, unassigned) [Example 143] | – | – | 100 to 1000 | < 10 |
| CN(C)Cc1cccc(N2c3nc(Nc4ccn(C5CCOCC5)c(=O)c4)ncc3[C@@]3(C)COC(C)(C)C[C@@H]23)n1 (single isomer, unassigned) [Example 387] | – | – | 1000 to 10000 | < 10 |
| CN1CC[C@@H]2CN(c3ccc(Nc4ncc5c(n4)N(c4cccc(N=S(C)(C)=O)n4)[C@@H]4CC(C)(C)OC[C@]54C)cc3)C[C@@H]21 (single isomer, unassigned) [Example 502] | < 100 | < 10 | – | – |
| CN1CC2CC1CN2c1ccc(Nc2ncc3c(n2)N(c2cccc(N=S(C)(C)=O)c2)C2CC(C)(C)OCC32C)cc1 (single isomer, unassigned) [Example 712] | 1000 to 10000 | < 10 | – | – |
| CN1[C@@H]2C[C@H]1CN(c1ccc(Nc3ncc4c(n3)N(c3cccc(N=S(C)(C)=O)n3)[C@@H]3CC(C)(C)OC[C@]43C)cc1)C2 (single isomer, unassigned) [Example 506] | 100 to 1000 | < 10 | – | – |
| CN1CCC(c2ccc(Nc3ncc4c(n3)N(c3cccc(N=S(C)(C)=O)n3)[C@@H]3CC(C)(C)OC[C@]43C)cn2)CC1 (single isomer, unassigned) [Example 140] | – | – | < 100 | < 10 |
| CC1(C)C[C@H]2N(c3cccc(N=S(C)(C)=O)n3)c3nc(NC(=O)[C@@H]4C[C@H]4c4cccnc4)ncc3[C@@]2(C)CO1 (single isomer, unassigned) [Example 401] | 100 to 1000 | < 10 | – | – |
| CNCc1cccc(N2c3nc(Nc4ccc(N5CCOCC5)cc4)ncc3[C@@]3(C)COCC[C@@H]23)n1 (single isomer, unassigned) [Example 572] | 100 to 1000 | < 10 | – | – |
| C[C@H]1CN(c2cccc(N3c4nc(Nc5ccc(N6CCN(C)CC6)cc5)ncc4[C@@]4(C)COC(C)(C)C[C@@H]34)n2)C(=O)O1 (single isomer, unassigned) [Example 599] | 100 to 1000 | < 10 | – | – |
| CN1C[C@H]2C[C@@H]1CN2c1ccc(Nc2ncc3c(n2)N(c2cccc(N=S(C)(C)=O)n2)[C@@H]2CC(C)(C)OC[C@]32C)cc1F (single isomer, unassigned) [Example 176] | – | – | 100 to 1000 | < 10 |
